The target of experiment [1] is T1, bacterial neuraminidase (BNA) (Clostridium perfringens, UniProt P10481). The experiment can be described thus: biochemical. It counts as biochemical, C. perfrigens.
The target in experiment [2] is T1, bacterial neuraminidase (BNA). The experiment can be described thus: biochemical. Type of experiment: biochemical, C. perfrigens. The source holds these as a separate data set.
Experiment [3] has the same target. The experiment can be described thus: biochemical. It counts as binding, C. perfrigens.
Another experiment has as its system E. coli. The experiment can be described thus: Cell growth of E. coli (OD 600 nm). Type of experiment: cell-based, Escherichia coli. Particulars: up to a concentration of 296 µM, compared to the control. As to the method: Escherichia coli was used in the study. All experiments were conducted in Difco™ Nutrient Broth (DNB) medium at 37°C. The E. coli was removed from glycerol stock at −80 C and transferred to the DNB plate. Next, in a 250 ml flask, a fresh single colony was inoculated into DNB (25 ml) medium and cultured at 37 C with 250 rpm for 24 h. Using the SpectraMaxM3 Multi-Mode Microplate Reader cell growth was found in the presence of different concentrations of compounds at optical densities of 600 nm. All experiments were conducted with at least three independent cultures ([Cho et al., 2013]).
Bacterial biofilms are a serious health concern owing to their abilities to tolerate antibiotics, host defense systems, and other external stresses ([Sharma et al., 2019]). It is generally accepted that neuraminidase participates in biofilm production together with quorum sensing. […] The crystal violet staining method was used for the detection of biofilm production. To investigate biofilm inhibition, E. coli was cultured overnight with or without inhibitor 1 in a 96-well plate.

The target of experiment [4] is T1, bacterial neuraminidase (BNA). It counts as biochemical, C. perfrigens.
The next experiment deals with E. coli biofilm. The experiment can be described thus: Antibiofilm assay (crystal violet staining). To be noted: Escherichia coli, 24 h, 37°C, read-out: concentration giving 50% inhibition of E. coli biofilm production. It counts as cell-based. As for the experimental part: A 96-well microtiter plate (polystyrene) was used to measure the anti-biofilm activity as described previously ([Mohanta et al., 2020]). First, 180 μl of DNB and 10 μl of the test pathogens (OD = 1.0, 600 nm) were added to individual wells. Then, 10 μl solutions of ugonin J with different concentrations was added to each well and the contents of each well were mixed thoroughly. The prepared plate was then incubated for 24 h in a static condition at 37°C. After incubation, the supernatant in the wells in the plate was discarded and the residue washed with phosphate buffered saline (pH 7.2) to remove the free-floating non-adherent cells from the wells in the plate. The plate was then air-dried for about 45 min before the bacteria in the wells were fixed with 2% (w/v) sodium acetate. This was followed by flooding the wells with crystal violet stain (0.1%, w/v) and incubation in the dark for 30 min. After this, the wells in the plate were washed with sterile deionized water to remove all dye and allowed to dry. After drying, each well in the plate was filled with 200 μl of ethanol (95%, v/v) and the absorbance of this solution was measured at 620 nm using the SpectraMax M3 Multi-Mode Microplate Reader. All assays were conducted in triplicate and the mean ± standard deviation was calculated. […]

[5] abbreviates: pH 5.0, read-out: IC50, inhibition of bacterial neuraminidase (BNA).
Setting [6] is: IC50, inhibition of bacterial neuraminidase (BNA).

Entries after “also recorded” stand apart in the source; their conditions may differ. Where two headings read alike, the source gives them in different places.

T1 sequence (P10481 whole entry, looked up): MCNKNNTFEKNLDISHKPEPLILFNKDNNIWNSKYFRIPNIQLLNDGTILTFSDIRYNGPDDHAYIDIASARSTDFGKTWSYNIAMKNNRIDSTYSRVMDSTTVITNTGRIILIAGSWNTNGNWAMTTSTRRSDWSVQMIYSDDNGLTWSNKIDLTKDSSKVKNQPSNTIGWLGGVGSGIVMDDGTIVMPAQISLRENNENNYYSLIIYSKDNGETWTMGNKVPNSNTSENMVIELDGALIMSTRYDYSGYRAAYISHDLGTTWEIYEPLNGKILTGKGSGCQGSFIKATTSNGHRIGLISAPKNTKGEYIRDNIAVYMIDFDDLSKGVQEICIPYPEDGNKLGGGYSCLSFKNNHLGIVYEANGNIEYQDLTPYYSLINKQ

Regarding `CC1(C)CCCC2(C)Oc3cc4oc(-c5ccc(O)c(O)c5)cc(=O)c4c(O)c3CC12` (centres unmarked) [Compound 6, ugonin U], the IC50 in experiment [1] (setting [5]) came to 350 nM. For the same molecule, in experiment [2], the affinity, expressed as Ki, was 290 nM and the Kinetic mode entry is listed as “Noncompetitive (0.29)”. Moreover, in experiment [3], the “K SV (Stern-Volmer quenching constant)” value amounted to 50000 L/mol, the Kd is 33300 nM and the “n (number of binding sites)” value turned out to be 1.44.

Take `C=C1CCCC(C)(C)C1Cc1c(O)cc2c(c1O)C(=O)CC(c1ccc(O)c(O)c1)O2` (centres unmarked) [Compound 2, 2-(3,4-dihydroxyphenyl)-6-[(2,2-dimethyl-6 methylenecyclohexyl)methyl]-5,7-dihydroxy-chroman-4-one]: the “fold greater BNA inhibitive ability than parent (mother) compound” value in experiment [1] is given as 250 fold. For the same molecule, in experiment [1] (setting [5]), the IC50 stood at 70 nM. Also, in experiment [2], the Ki came out at 60 nM and the Kinetic mode entry is reported as “Noncompetitive (0.06)”. In experiment [3], the “K SV (Stern-Volmer quenching constant)” value worked out at 2.53e+06 L/mol; the affinity, expressed as Kd, was 746 nM; the “n (number of binding sites)” value is 1.01.

For the molecule `O=C1C[C@@H](c2ccc(O)c(O)c2)Oc2cc(O)cc(O)c21` [Eriodictyol, reference compound], the IC50 in experiment [1] (setting [5]) is 17800 nM.

Regarding `O=c1cc(-c2ccc(O)c(O)c2)oc2cc(O)cc(O)c12` [Luteolin, reference compound], the IC50 in experiment [1] (setting [5]) came out at 4400 nM. Further, in experiment [3], the “fluorescence (FS) reduction of BNA” value is on record as “did not undergo FS reduction”.

`CC1=CCCC(C)(C)C1Cc1c(O)c(O)cc2oc3c(=O)c4c(O)cc(O)cc4oc3c12` (centres unmarked) [Compound 4, ugonin M]: in experiment [1] (setting [5]), the IC50 came to 150 nM. Besides, in experiment [2], the Ki was found to be 120 nM and the Kinetic mode result is given as “Noncompetitive (0.12)”. For the same molecule, in experiment [3], the “K SV (Stern-Volmer quenching constant)” value stood at 810000 L/mol; the affinity, expressed as Kd, was 1180 nM; the “n (number of binding sites)” value was determined as 1.13.

Turning to `CC1(C)CCC[C@@]2(C)Oc3c(c(O)cc4oc(-c5ccc(O)c(O)c5)cc(=O)c34)C[C@@H]12` [Compound 5, ugonin S], in experiment [1] (setting [6]), the IC50 turned out to be 140 nM. Besides, the IC50 in experiment [1] (setting [5]) amounted to 280 nM. Also, in experiment [2], the Ki worked out at 250 nM and the Kinetic mode result was “Noncompetitive (0.25)”. In addition, in experiment [3], the “K SV (Stern-Volmer quenching constant)” value was found to be 70000 L/mol, the Kd was 16700 nM and the “n (number of binding sites)” value is listed as 1.24.

As for `C=C1CCCC(C)(C)[C@@H]1Cc1c(O)cc2oc(-c3ccc(O)c(O)c3)cc(=O)c2c1O` [Compound 1, ugonin J], the “growth inhibition of E. coli” value in the experiment on E. coli was “no growth inhibition”. Further, the IC50 in experiment [1] (setting [5]) was found to be 50 nM. Besides, in experiment [2], the Kinetic mode result is reported as “noncompetitive inhibitor; also recorded: Noncompetitive (0.05)” and the “reversibility of BNA inhibition” value is given as “reversible inhibitor”. Besides, in experiment [4], the “k 5” value is 0.0103 min⁻¹ and the “k 6” value came out at 0.0486 min⁻¹. The IC50 in the experiment on E. coli biofilm was 18000 nM. In addition, in experiment [3], the “K SV (Stern-Volmer quenching constant)” value amounted to 4.77e+06 L/mol, binding was put at a Kd of 282 nM, the “fluorescence (FS) reduction of BNA” value is given as “complete FS reduction” and the “n (number of binding sites)” value was 1.30.

In turn, `O=c1c(O)c(-c2ccc(O)c(O)c2)oc2cc(O)cc(O)c12` [Quercetin, reference compound] displayed an IC50 in experiment [1] (setting [6]) of 20400 nM.

Source of the values: publication PMC9130766 (Frontiers in Pharmacology, 2022).
